Results as given in publication PMC10575543 (PLOS Pathogens, 2023).
Several values for one entry are separate records, joined by “and”; a condition that tells them apart may be missing. Equal entries are not always repeated.

How the values were obtained:
ALSV MTase [1] = molecular target: T1, ALSV MTase (Alongshan virus, UniProt A0A344X2I6); assay: biochemical; type: binding
ALSV MTase [2] = molecular target: T1, ALSV MTase; type: biochemical

Structure (SMILES)	N index (binding stoichiometry) (ALSV MTase [1])	inhibition of ALSV MTase methyltransferase activity (ALSV MTase [2])	Kd (ALSV MTase [1]) [µM]
Nc1ncnc2c1ncn2[C@@H]1O[C@H](CSCC[C@H](N)C(=O)O)[C@@H](O)[C@H]1O [SAH, S-adenosyl-L-homocysteine]	0.95 ± 0.05 and 1.05 ± 0.06		
Nc1ncnc2c1ncn2[C@@H]1O[C@H](C[C@@H](N)CC[C@H](N)C(=O)O)[C@@H](O)[C@H]1O [SIN, sinefungin]		preserved its inhibitory capacity	12.6 ± 2.8
